The target of experiment [1] is T1, Peroxisome proliferator-activated receptor delta (Homo sapiens, UniProt Q03181).
T1 sequence (Q03181 whole entry): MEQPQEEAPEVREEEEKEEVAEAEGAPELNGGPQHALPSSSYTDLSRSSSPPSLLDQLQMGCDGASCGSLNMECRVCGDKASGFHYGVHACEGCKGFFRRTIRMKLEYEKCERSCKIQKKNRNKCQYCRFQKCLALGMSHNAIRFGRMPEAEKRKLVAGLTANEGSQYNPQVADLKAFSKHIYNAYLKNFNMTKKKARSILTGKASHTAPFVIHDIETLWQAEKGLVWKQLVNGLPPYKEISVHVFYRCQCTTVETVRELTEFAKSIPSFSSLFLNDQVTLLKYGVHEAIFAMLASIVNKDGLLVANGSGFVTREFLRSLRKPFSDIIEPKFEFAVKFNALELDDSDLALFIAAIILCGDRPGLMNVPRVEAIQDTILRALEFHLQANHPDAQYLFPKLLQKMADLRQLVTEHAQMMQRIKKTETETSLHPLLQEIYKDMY
The settings on record: cv-1.

The target in experiment [2] is T2, Peroxisome proliferator-activated receptor gamma (Homo sapiens, UniProt P37231).
T2 sequence (P37231 whole entry): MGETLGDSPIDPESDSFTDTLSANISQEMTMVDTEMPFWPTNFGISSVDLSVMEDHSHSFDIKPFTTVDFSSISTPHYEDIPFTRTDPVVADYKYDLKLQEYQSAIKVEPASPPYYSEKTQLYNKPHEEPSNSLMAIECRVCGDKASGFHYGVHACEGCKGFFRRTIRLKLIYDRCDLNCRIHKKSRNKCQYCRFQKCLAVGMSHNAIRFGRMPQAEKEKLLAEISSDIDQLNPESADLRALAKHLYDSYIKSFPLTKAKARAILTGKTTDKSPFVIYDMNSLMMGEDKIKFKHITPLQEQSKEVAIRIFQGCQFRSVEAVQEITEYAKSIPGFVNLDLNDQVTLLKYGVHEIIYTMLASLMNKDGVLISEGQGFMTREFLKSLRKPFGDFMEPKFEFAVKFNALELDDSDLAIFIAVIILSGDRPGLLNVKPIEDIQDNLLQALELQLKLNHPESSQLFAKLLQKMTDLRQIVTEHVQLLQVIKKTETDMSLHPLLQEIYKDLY

Experiment [3] concerns the target T3, Peroxisome proliferator-activated receptor alpha (Homo sapiens, UniProt Q07869).
T3 sequence (Q07869 whole entry): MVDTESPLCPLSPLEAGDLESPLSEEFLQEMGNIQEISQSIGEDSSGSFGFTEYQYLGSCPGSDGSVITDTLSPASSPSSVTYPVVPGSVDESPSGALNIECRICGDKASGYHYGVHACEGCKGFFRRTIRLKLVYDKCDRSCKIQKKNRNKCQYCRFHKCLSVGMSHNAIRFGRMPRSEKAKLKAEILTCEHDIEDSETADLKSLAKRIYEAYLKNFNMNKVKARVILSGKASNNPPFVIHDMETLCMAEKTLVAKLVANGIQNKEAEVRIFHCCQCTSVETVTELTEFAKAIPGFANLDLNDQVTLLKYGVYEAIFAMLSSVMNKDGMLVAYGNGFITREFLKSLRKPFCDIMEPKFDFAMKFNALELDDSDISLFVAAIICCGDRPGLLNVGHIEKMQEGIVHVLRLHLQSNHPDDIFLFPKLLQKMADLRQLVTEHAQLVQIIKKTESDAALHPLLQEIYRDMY
Kind of experiment: Binding affinity to GST-tagged human PPARalpha by TR-FRET analysis. In general terms: In TR-FRET formats the signal depends on donor and acceptor labels being close together.

The target in experiment [4] is T4, Peroxisome proliferator-activated receptor alpha (Homo sapiens) (UniProt Q07869).
T4 sequence (whole entry): T3 sequence (Q07869 whole entry)
Kind of experiment: Transactivation of human PPARalpha expressed in african green monkey CV1 cells at 30 uM by luciferase reporter gene assay relative to Wy14643. Type of experiment: cell-based. The settings on record: CV-1. (In general: Reporter assays use an easily measured gene product as a stand-in for the process of interest.)

The target of experiment [5] is T5, Peroxisome proliferator-activated receptor gamma (Homo sapiens) (UniProt P37231).
T5 sequence (whole entry): T2 sequence (P37231 whole entry)
Kind of experiment: Transactivation of human PPARgamma expressed in african green monkey CV1 cells at 30 uM by luciferase reporter gene assay relative to […]. Type of experiment: cell-based. The settings on record: CV-1.

In experiment [6] the test system is 3T3-L1. Description: Induction of preadipocyte differentiation in mouse 3T3L1 cells assessed as […] in lipid droplet accumulation at 10 uM Oil Red O staining. Type of experiment: functional, cell-based.
Experiment [7] concerns HepG2. Kind of experiment: Increase in CPT1 mRNA expression in human HepG2 cells at 10 uM. It is filed as functional, cell-based.
Experiment [8] addresses T3, Peroxisome proliferator-activated receptor alpha. Kind of experiment: Transactivation of human PPARalpha expressed in african green monkey CV1 cells by luciferase reporter gene assay. It is filed as cell-based, CV-1.
Experiment [9] has as its target T2, Peroxisome proliferator-activated receptor gamma. Description: Transactivation of human PPARgamma expressed in african green monkey CV1 cells by luciferase reporter gene assay. It is filed as cell-based, CV-1.
Experiment [10] concerns the target T6, Peroxisome proliferator-activated receptor delta (Homo sapiens) (UniProt Q03181).
T6 sequence (whole entry): T1 sequence (Q03181 whole entry)
As to conditions: CV-1, 30 uM.

The test system of experiment [11] is HepG2. Kind of experiment: Increase in ACS mRNA expression in human HepG2 cells at 10 uM. Type of experiment: functional, cell-based.
Experiment [12] relates to 3T3-L1. Description: Induction of preadipocyte differentiation in mouse 3T3L1 cells assessed as increase in lipid droplet accumulation at 10 uM Oil Red O staining relative to control. It is filed as functional, cell-based.

Activity calls are given as the source filed them. No cut-off for these calls is given here.

For orientation: EC50 means the concentration that produces a half-maximal response. As a reminder, the IC50 is the concentration that inhibits the measured activity by half.

Take `CC(C)=CCC/C(C)=C/Cc1c(O)cc(/C=C/c2ccc(Cl)cc2)cc1O`: the EC50 entry in experiment [1] is “Not Active”. For the same molecule, the IC50 turned out to be 0.54 µM in experiment [2] and 7.47 µM in [3].
With `CC(C)=CCC/C(C)=C/Cc1c(O)cc(/C=C/c2ccc(C=O)cc2)cc1O`, in experiment [1], the EC50 result is reported as “Not Active”. The figures for the Emax in experiment [4] and in experiment [5] were 35% and 27%, respectively. Moreover, the 50% inhibitory concentration (IC50) came out at 0.89 µM in experiment [2] and 2.82 µM in experiment [3].
As for `CC(C)=CCC/C(C)=C/Cc1c(O)cc(/C=C/c2cccc(C(F)(F)F)c2)cc1O`, the values for the EC50 entry in [1], in experiment [8] and in experiment [9] were “Not Active”, 4 µM and 5 µM, respectively. The outcome with 3T3-L1 [6] and in the experiment with HepG2 [7] was Active. For the same molecule, the IC50 in [2] is 0.53 µM; in experiment [3], 1.21 µM.
Turning to `CC(C)=CCC/C(C)=C/Cc1c(O)cc(/C=C/c2ccsc2)cc1O`, the EC50 entry was “Not Active” in experiment [1], 14 µM in experiment [8] and 6 µM in experiment [9]. The Emax in [4] came out at 56%; in [5], 68%. Also, the results for the IC50 in experiment [2] and in experiment [3] were 1.01 µM and 5.41 µM, respectively.
As for `COc1ccc(/C=C/c2cc(O)c(C/C=C(\C)CCC=C(C)C)c(O)c2)cc1`, the EC50 entry in experiment [1] is “Not Active”; in experiment [8], 19 µM; in experiment [9], 14 µM. Further, the Emax in experiment [4] stood at 63%; in experiment [5], 66%. The IC50 in [2] was 0.63 µM; in experiment [3], 2.5 µM.
For the molecule `CC(C)=CCC/C(C)=C/Cc1c(O)cc(/C=C/c2ccc(C(F)(F)F)cc2)cc1O`, the concentration for a half-maximal effect (EC50) entry in [1] was “Not Active”. Also, the half-inhibitory concentration (IC50) worked out at 8.1 µM in experiment [2] and 3.33 µM in [3].
Take `CC(C)=CCC/C(C)=C/Cc1c(O)cc(/C=C/c2ccoc2)cc1O`: the values for the EC50 result in experiment [1], in [8] and in [9] were “Not Active”, 6 µM and 5 µM, respectively. Moreover, the Emax is 87% in [4], 98% in [5] and 34% in experiment [10]. In addition, the outcome with 3T3-L1 [6] and in the experiment with HepG2 [11] was Active. Besides, the figures for the IC50 in experiment [2] and in experiment [3] were 0.65 µM and 2.03 µM, respectively.
Regarding `CC(C)=CCC/C(C)=C/Cc1c(O)cc(/C=C/c2ccccc2)cc1O` [AMORPHASTILBOL], the EC50 result was “Not Active” in experiment [1], 12 µM in experiment [8] and 5 µM in experiment [9]. The values for the Emax in experiment [4] and in [5] were 66% and 83%, respectively. Also, the result in the experiment with HepG2 [11], in the experiment on HepG2 [7] and in the experiment with 3T3-L1 [12] was Active. The IC50 in experiment [2] stood at 0.85 µM; in experiment [3], 1.52 µM.
In the case of `CC(C)=CCC/C(C)=C/Cc1c(O)cc(/C=C/c2ccc(C#N)cc2)cc1O`, the results for the half-maximal effective concentration (EC50) result in experiment [1] and in experiment [8] were “Not Active” and 20 µM, respectively. Besides, the Emax in experiment [4] stood at 54%; in [5], 41%. In addition, the results for the IC50 in experiment [2] and in experiment [3] were 1.2 µM and 3.47 µM, respectively.
Regarding `CC(C)=CCC/C(C)=C/Cc1c(O)cc(/C=C/c2ccc(O)cc2)cc1O`, the figures for the EC50 result in [1], in experiment [8] and in experiment [9] were “Not Active”, 8 µM and 8 µM, respectively. Also, the IC50 in experiment [2] was determined as 0.11 µM; in experiment [3], 1.21 µM.
For `CC(C)=CCC/C(C)=C/Cc1c(O)cc(/C=C/c2cc(F)cc(F)c2)cc1O`, the values for the EC50 entry in [1] and in [9] were “Not Active” and 7 µM, respectively. Besides, the values for the IC50 in experiment [2] and in experiment [3] were 0.9 µM and 2.08 µM, respectively.
On to `CC(C)=CCC/C(C)=C/Cc1c(O)cc(/C=C/c2ccc(F)cc2)cc1O`, for which the EC50 result was “Not Active” in [1], 6 µM in experiment [8] and 11 µM in [9]. In addition, the Emax turned out to be 88% in experiment [4], 68% in experiment [5] and 17% in [10]. Further, the figures for the IC50 in experiment [2] and in [3] were 2.32 µM and 2.48 µM, respectively.

Values taken from ChEMBL document CHEMBL2029250 (Bioorg Med Chem Lett, 2012).
